Results: patent publication US20240091310A1, “COMPOSITIONS AND METHODS USEFUL FOR THE PREVENTION AND/OR TREATMENT OF DISEASE IN MAMMALS” (VIRO-GEN (PTY) LTD, priority 2020, published 2024)

Key:
HIV = conditions: as previously disclosed; cited from earlier work
HIV-1 [1] = conditions: transdermal patch containing DMF; cited from earlier work
HIV-1 [2] = test: Follow-up HIV PCR and CD4 count after transdermal DMF study; format: in vivo, human
From the text: Individuals, the study of whom generated the teachings of ZA 1998/064649, despite being infected with HIV have maintained a CD4^+ T-cell count above 350 for more than 20 years without being on antiretroviral treatment. These individuals are referred to herein as Long-term Non-Progressors (“LTNP”).
One such individual, had initially presented with HIV PCR detecting 63.298 HIV-1 RNA copies/ml of plasma in December 1996.

[3] = Transdermal absorption of liquid DMF; format: in vivo, human; conditions: two patches of diameter 9 cm, total skin surface area 127 cm^2
Procedure: For transdermal administration of a polar compound, the rate of absorption is determined by the skin of the subject.
Accordingly, the desired rate of absorption may be achieved by controlling the surface area of the skin exposed to the drug, as by determining the area of each patch and the number of patches applied to the skin.

CN(C)C=O [DMF, N,N-dimethylformamide]
inhibition of HIV production (HIV): powerful inhibitors of HIV production
outcome of treatment of patients infected with HIV-1 (HIV-1 [1]): promising results
HIV-1 RNA copies/ml of plasma by HIV PCR (HIV-1 [2]; one LTNP individual, follow-up March 2006 after transdermal DMF study, initially 63.298 copies/ml in December 1996): < 40 copies/ml
CD4 Count (HIV-1 [2]; same individual, follow-up 2011): 920 µL⁻¹
HIV-1 RNA copies/ml of plasma by HIV PCR (HIV-1 [2]; same individual, further follow-up 2011): No
absorption rate [3]: about 1.2 g of DMF per hour

C[S+](C)[O-] [DMSO, Diemthylsulfoxide]
inhibition of HIV production (HIV): powerful inhibitors of HIV production
